These results are taken from patent US20220064141A1, “BENZOPYRIDONE HETEROCYCLIC COMPOUND AND USE THEREOF” (BrightGene Bio-Medical Technology Co., Ltd., priority 2019, published 2022).

Series [1] in a line: Pharmacokinetic experiment in male CD-1 mice (IV and PO). It counts as in vivo. How it is done: Effect Example 3: Pharmacokinetic Experiment
(1) Compound I-2-2 of the present disclosure prepared in the above Example was used to be formulated into a clear solution (0.3 mg/mL) (2% DMSO+30% PEG 300+2% Tween 80+66% H2O) as a drug for oral administration; and was used to be formulated into a clear solution (0.2 mg/mL) (2% DMSO+30% PEG 300+2% Tween 80+66% H2O) as a drug for intravenous administration.
(2) Male CD-1 mice (three mice in each group, weighing 27 g to 28 g) were provided by Shanghai Slack Laboratory Animal Co., Ltd. The test mice were given an environmental accommodation period of 2 to 4 days before the experiment. The mice were fasted for 8 to 12 hours before administration, and they were provided access to water (2 hours after administration) and food (4 hours after administration).
(3) 12 hours after the mice were fasted but had free access to water, blank plasma at time 0 was taken.
(4) The mice in step 1) were taken; and they were orally (PO) administered 3 mg/kg of the compound to be tested, or intravenously (IV) administered 1 mg/kg of the compound to be tested.
(5) At 5 min, 15 min, 30 min, 1 h, 2 h, 4 h, 8 h, 10 h, and 24 h after oral administration, blood was successively taken from the fundus oculi venous plexus and placed in EP tubes with heparin. After centrifugation at 8000 rpm/min for 5 min, the plasma in upper layer was collected and frozen at −20° C., waiting for LC-MS/MS analysis.
(6) WinNonlin software was used to calculate the pharmacokinetic parameters based on the blood concentration-time data obtained in […]).

Series [2] concerns HCT116 human colon cancer cells with high expression of KRAS G13D. Nature of the series: Cell Titer-Glo cell viability, HCT116 cells (72 h). It counts as cell-based. The note with it: HCT-116. From the text: (§1) Effect Example 2: Pharmacodynamic Assay 2 (Determination of the efficacy of the compounds of the present disclosure on HCT116 human colon cancer cells with high expression of KRAS G13D and A549 human non-small cell lung cancer cells with high expression of KRAS G12S)
(§2) The following method was used to determine the effects of the compounds of the present disclosure on tumor cell proliferation.
(§3) For KRAS G13D subtype, HCT116 human colon cancer cell was used. For KRAS G12S subtype, A549 human non-small cell lung cancer cell was used. The efficacy of the compounds in inhibiting cancer cell viability was determined. HCT116 cells or A549 cells were cultured in a DMEM medium containing 10% fetal bovine serum, 100 U penicillin and […] streptomycin. The cells were cultured in an incubator with 5% CO2 at 37° C. Cancer cell viability was evaluated by determining the content of ATP with Cell Titer-Glo® kit (Luminescent Cell Viability Assay kit, please refer to the manufacturer's instructions for use) and evaluating the inhibition of cell growth.
(§4) The experimental method was proceeded in accordance with the steps in the instructions for the kit, and was described briefly as follows. The test compounds were first dissolved in DMSO to prepare stock solutions, and then the stock solutions were subjected to gradient dilution with the culture media of the corresponding cells, thereby preparing test samples. The final concentrations of the compounds were in the range of 30 μM to 0.01 nM. Tumor cells in logarithmic growth phase were seeded into a 96-well cell culture plate at an appropriate density. After the cell culture plate was left overnight in an incubator with 5% CO2 at 37° C., the test compound samples were added thereto and then the cells were further cultured for 72 hours. After the incubation was complete, an appropriate volume of Cell Titer-Glo® reagent was added into each well, and the cells were incubated at 37° C. for 1 to 4 hours. Then, the […] was read on a microplate reader. The percentage inhibition rates of the compounds at each concentration point were calculated by comparing the absorbance values of the sample wells with that of the control group (0.3% DMSO), and then non-linear regression analysis of the concentration of the compound vs inhibition rate was performed by using GraphPad Prism 5 software, thereby obtaining IC50 values indicating the inhibitory effects of the compounds on cell proliferation.

The subject of series [3] is A549 human non-small cell lung cancer cells with high expression of KRAS G12S. In words: Cell Titer-Glo cell viability, A549 cells (72 h). Type of series: cell-based.
Text: as §1, §2, §3, §4

Series [4] deals with NCI-H358 human non-small cell lung cancer cell with KRAS G12C mutation. In words: Cell Titer-Glo cell viability, NCI-H358 cells (72 h). It counts as cell-based. The conditions noted are these: Homo sapiens, NCI-H358, 72 h, numeric values. Put shortly: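 NCI-H358 (KRAS G12C) cells in DMEM with 10% FBS, seeded and left overnight at 37 °C, then treated 72 h with compound at 30 μM to 0.01 nM final. Viability from ATP content with Cell Titer-Glo after 1-4 h incubation at 37 °C; […].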

Some results are limits rather than exact numbers.

`C=CC(=O)N1CCN(c2c(C#N)c(=O)n(-c3ccccc3C(C)C)c3cc(-c4c(C)ccc5[nH]ncc45)c(Cl)cc23)[C@@H](C)C1` (single isomer, unassigned) [Compound I-2-2] came in with a F in series [1] (PO 3 mg/kg) of 18.9%. Also, in series [1] (mouse, plasma, IV 1 mg/kg), the AUC stood at 867 ng·h/mL, the Vd worked out at 1.17 L/kg, the clearance came to 16.7 mL/min/kg and the half-life is 43.1 min. For the same compound, in series [1] (mouse, plasma, PO 3 mg/kg), the AUC stood at 479 ng·h/mL, the peak level (Cmax) was 220 ng/mL and the Tmax is 60 min. The IC50 in series [2] is > 3000 nM. In series [3], the IC50 was > 3000 nM. In series [4], this compound showed an IC50 of 50 nM.
